Marks after values point to notes of the source that are not given here.
Experiments:
[1] = system: neonate rat cardiomyocyte cells; assay: Hypoxia/ischemia in neonatal rat cardiomyocyte cultures, LDH release; assay type: cell-based; conditions: 30, 100 and 300 nm compound vs 1 μM TPEN; 150 min ischemia then reoxygenation
Protocol: Rat hearts (1-2 days old) were sterilely removed and bathed three times in Ca^2+- and Mg^2+-free PBS to remove excess blood cells. The hearts were minced to small fragments and then agitated in a proteolytic enzyme-RDB solution prepared from a fig tree extract as described previously (Brik et al., 1990; Shneyvays et al., 2001). The RDB was diluted 1:200 in PBS at 25° C. for a few cycles of 10 min each. The supernatant suspension containing dissociated cells, to which medium containing 10% horse serum was added, was centrifuged at 500 g for 5 min. After centrifugation, the supernatant phase was discarded, and cells were resuspended in Dulbecco's modified Eagle medium supplemented with 10% heat-inactivated horse serum and 0.5% chick embryo extract. Cell suspensions were diluted to 1×10^6 cells/ml, and 300 μl was placed in 24 well plates (4 plates) collagen/gelatin-coated plastic culture dishes. Cultures were incubated in a humidified atmosphere of 5% CO2 and 95% air at 37° C. […] The growth medium was replaced every 3 days. The experiments were performed in vitro on these cardiomyocyte cultures after 3 to 5 days. […]
LDH activity was determined using LDH-L kit (Thermo Trace, Melbourne, Australia) within the cardiac cell medium (PBS). […] LDH enzymatic activity was measured in a spectrophotometer at a wavelength of 340 nm at 30° C. […]

[2] = system: model of ischemia/reperfusion in the CD rat; assay: Rat model of ischemia/reperfusion, infarct analysis (Phase B); assay type: in vivo; conditions: positive control 5000 IU/kg bolus intravenous injection
Protocol: This study was conducted to evaluate the effects of the Compound #6 on cardiac function, infarct size, and Troponin I levels in a model of ischemia/reperfusion in the CD® (CR1CD® (SD)) rat. Phase A was conducted for toxicity evaluation purposes. In Phase B (the efficacy phase), two treatment groups of eight male rats were administered Compound #6 at dose levels of 0.2 and 2 mg/kg via intravenous infusion following myocardial infarction. The 2 mg/kg dose of Compound #6 was administered intravenously via a slow infusion starting 3 to 14 minutes prior to reperfusion and continuing for 20 minutes to 20 minutes and 32 seconds, which was approximately 6 to 17 minutes after reperfusion (depending on the infusion start time). The 0.2 mg/kg dose of Compound #6 was administered intravenously via a slow infusion starting 10 minutes prior to reperfusion and continuing for 30 minutes to 30 minutes and 30 seconds, which was approximately 20 minutes after reperfusion.
The animals were placed on mechanical ventilation and […]. Once anesthetized, the animal was placed in a right lateral recumbency, an arterial catheter or polyethylene tube was placed in the carotid artery for monitoring blood pressure and a thoracotomy was performed. The left coronary artery (LCA) was identified. A ligature was placed around the LCA and the vessel was ligated. The LCA was maintained occluded for 29 to 43 minutes. Occlusion of the vessel was verified via blanching of the heart and via ST interval changes. At the end of the occlusion period, the knot was loosened leaving the ligature in place, and the vessel was allowed to reperfuse for 3 hours 27 minutes to 4 hours 51 minutes. Following infarct, a chest tube was placed, the deep and superficial muscle layers were sutured at the surgical incision, and the skin was closed with staples. The chest tube was removed after spontaneous respiration was established. In Phase A, the animals were recovered from anesthesia and evaluated for 4 days. In Phase B, animals were maintained under anesthesia for 3 hours 27 minutes to 4 hours 51 minutes prior to being submitted to necropsy.
(§1) In Phase B, Compound #6 was administered once on Day 0 via intravenous infusion at dose levels of 0.2 and 2 mg/kg. The doses were administered at a dose volume of 1 mL/kg (0.05 [2 mg/kg] or 0.033 [0.2 mg/kg] mL/kg/minute). Two control groups received the vehicle (saline) or the vehicle for Compound #6 (10% (w/v) 2-hydroxypropyl-beta-cyclodextrin and 100 mM sodium chloride in deionized water) in the same manner as the 2 mg/kg treated group. The vehicles and 2 mg/kg Compound #6 were administered intravenously via a slow infusion starting 3 to 14 minutes prior to reperfusion and continuing for 20 minutes to 20 minutes and 32 seconds, which was approximately 6 to 17 minutes after reperfusion (depending on the infusion start time). The 0.2 mg/kg Compound #6 was administered intravenously via a slow infusion starting 10 minutes prior to reperfusion and continuing for 30 minutes to 30 minutes and 30 seconds, which was approximately 20 minutes after reperfusion. The positive control article, Erythropoietin, was administered at 5000 IU/kg via a bolus intravenous injection. The positive control article dose was administered at a dose volume of 2.5 mL/kg. The positive control was administered via a 3 to 60 second injection at 5 minutes prior to reperfusion.
After LAD reperfusion (4 hours), the animals were euthanized by an intraperitoneal injection of sodium pentobarbital followed by exsanguination via severing the abdominal vena cava. The heart was flushed with heparinized Lactated Ringers Solution (LRS) until clear of blood and the LAD was tied off using the same ligature used to occlude the vessel and Evan Blue dye was injected. The heart was weighed and breadloafed (4-5 sections per animal). […]

[3] = system: model of ischemia/reperfusion in the CD rat; assay: Rat model of ischemia/reperfusion, cardiovascular monitoring (blood pressure, heart rate; Phase B); assay type: in vivo; conditions: positive control 5000 IU/kg bolus; within 5-10 minutes of reperfusion
Protocol: The animals in Phase B were monitored for selected cardiovascular endpoints from at least 15 minutes prior to acute myocardial infarction until at approximately 1 hour post reperfusion. Blood samples for the evaluation of Troponin I were collected from all surviving Phase B animals prior to coronary artery occlusion and at termination. At study termination, the Phase B animals were submitted to necropsy for limited necropsy examinations and infarct analysis.
as §1
In Phase B, animals were anesthetized for monitoring of selected cardiovascular parameters. For experimentation, the blood pressure catheter implanted in the carotid artery was attached to an external transducer and data acquisition was started. Blood pressure (systolic, diastolic, and mean arterial) and heart rate (derived from blood pressure) were monitored from at least 15 minutes prior to acute myocardial infarction (AMI) until at least 1 hour after reperfusion. Individual animal cardiovascular data tables are not reported but are maintained in the study file.

PC12 cells = assay: PC12 ischemic model (oxygen and glucose deprivation), cell death by LDH measurement; assay type: cell-based; conditions: for protection percentile: protection from cell death, FIG. 6B: identical for both compounds
Protocol: PC12 cells were grown in 25 cm^2 flasks in Dulbecco's modified Eagles Medium (DMEM), supplemented with 7% fetal bovine serum (FBS), 7% horse serum, […] penicillin and 100 μg/ml streptomycin. Cells were grown in humidified incubator 5% CO2, 95% air at 37° C. The medium was replaced every 2 days, and upon 70% confluence, the cells were counted and seeded for the ischemia experiments.
Approximately 1×10^6 PC12 cells/well were cultured and exposed to ischemia (oxygen and glucose deprivation=OGD) for 4.5 hr. Prior to the exposure, the growth medium was replaced with glucose-free DMEM (1 ml/well). Ischemia was performed in a closed chamber by replacement of air with 95% nitrogen/5% CO2.
Ischemic stress injury was characterized by lactate dehydrogenase (LDH) released from cells. After 4.5 hr of ischemia, a 50 μl sample of supernatant was taken from each well for LDH measurement. At the end of the ischemic insult (after 4.5 hr), glucose (at final concentration of 4.5 g/L by adding 10 μl from stock solution of 450 mg/ml per well (1 ml)) was added to the plates which underwent ischemia. The plates were then transferred to a humidified incubator and exposed to 95% air/5% CO2 at 37° C. for additional 18 hr of reoxygenation. DMEM supernatant samples (25 μl/well) were collected from each well for LDH measurements. The samples were centrifuged at 3500 rpm for 5 min, and 5 μl aliquots of supernatant was taken for LDH measurement.
For every experiment, a duplicate plate was prepared as a control study under normoxia. Cells were kept in a humidified incubator (5% CO2 and 95% air at 37° C.) in cell culture complete medium at a volume of 1 ml for 18 hr, and the same compounds were added with the same concentrations. Supernatant was collected for LDH measurement as indicated in the LDH activity measurement section below. Afterwards (at the end of the reoxygenation phase), the plates were frozen (at −70° C. for 30 min) and thawed once. 25 μl/well sample was collected and the samples were centrifuged at 3500 rpm for 5 min and then taken for LDH measurement (total).
LDH activity was determined using LDH-L kit (Pointe Scientific Inc., Michigan, USA) in the PC12 cell medium. Medium samples (5 μl) were collected at the end of the ischemic insult (after 4.5 hr) and after the reoxygenation period. In parallel, samples from the plates exposed to normoxia were collected. LDH enzymatic activity was measured in a spectrophotometer at a wavelength of 340 nm at 37° C. Data analysis was performed as follows: [OD (cycle 3)−OD (cycle 1)experiment]−[OD(3)−OD(1) control])/[OD(3)−OD(1) total]×100, and presented as percentage of total cell death.
One day before the experiment, 12-well plates were coated with 200 μg/ml type I rat tail collagen (BD Biosciences, Bedford, Mass.) and were further sterilized under UV. 1×10^6 PC12 undifferentiated cells/well were seeded on the plates and allowed to adhere overnight under regular conditions (DMEM medium high glucose 4.5 mg/ml, 5% CO2 and 95% air at 37° C.). Each experiment included 4 plates, two for normoxia and two for ischemia which underwent the same following treatment for all 4 plates.
A half hour before the onset of the ischemic insult, the antioxidant Tempol (4-hydroxy-2,2,6,6-tetramethylpiperidine-1-oxyl) (Sigma, St. Louis, Mo.) at a concentration of 0.5 mM (10 μl/well taken from a 8.6 mg/ml stock solution) or TPEN at a concentration of 3 μM and 10 μM were added to the plates. Before the experiments, the medium was replaced with DMEM glucose free medium at 1 ml volume/well. TPEN or 10 μl Tempol were again added to the appropriate wells and was maintained throughout all experiments.
Thereafter, the plates were introduced into a device inducing ischemia atmosphere with 95% nitrogen and 5% CO2 for 4.5 hr. Oxygen level was monitored online by a digital oxygen monitor showing up to 1%. At the end of OGD, 25 μl from each well was collected into 0.5 ml tubes for the LDH assay. […]

Compound: c1c[nH]c(CN(CCN(Cc2ncc[nH]2)Cc2ncc[nH]2)Cc2ncc[nH]2)n1 [Compound #4]
- protective effect against hypoxic insult (LDH release) compared with TPEN, FIG. 1A [1]: only slightly more effective than TPEN

Compound: EPO: positive control article, erythropoietin [reference compound]
- cardiac damage compared to saline control animals, in words [2]: significantly less cardiac damage
- Infarct/AAR (%) Mean ([2]; 4 hour reperfusion, rat): 22^b %
- Infarct/LV (%) Mean ([2]; rat): 8%
- mean arterial pressures after reperfusion [3]: increased

Compound: c1ccc(CN(CCN(Cc2ccccn2)Cc2ccccn2)Cc2ccccn2)nc1 [TPEN, N,N,N′,N′-tetrakis-(2-pyridylmethyl)-ethylenediamine, reference compound]
- reducing death of PC12 cells subjected to ischemia (LDH), FIG. 2 (PC12 cells; 10 μM, 4.5 hours ischemia): effective
- reducing death of PC12 cells, comparison vs. Tempol, FIG. 2 (PC12 cells; TPEN 10 μM vs Tempol 0.5 mM, 4.5 hours ischemia): significantly effective vs. Tempol
- protection percentile: protection from cell death, FIG. 6B (PC12 cells; first of two selected concentrations (not given)): 7%
- protection percentile: protection from cell death, FIG. 6B (PC12 cells; second of two selected concentrations (not given)): 19%
